The values that follow come from US20070049593A1 (priority 2004, published 2007).

Counter-ions that a name gives are not always drawn.

This assay deals with T1, HCV polymerase (Hepatitis C virus genotype 1b, UniProt P26663).
T1 construct: a region encoding NS5B (J Virol 1991 March, 65(3), 1105-13, 544 amino acids after deletion of 47 amino acids on the C-terminal); 6xHis (C); made in house; host or cells: Escherichia coli
Briefly: biochemical. More on the design: species or system HCV BK strain. The essentials:
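His-tagged NS5B (BK strain, 47-aa C-terminal deletion, E. coli-expressed) at 0.5 μg/ml copied 5 μg/ml run-off RNA bearing the HCV 3′ UTR with 2 μM UTP plus [3H]UTP, 50 μM ATP/GTP, in pH 7.5 Tris with 5 mM MgCl2, 25 °C, 90 min. TCA-precipitated RNA was counted and IC50 calculated.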

T1 sequence (P26663 2420-2963): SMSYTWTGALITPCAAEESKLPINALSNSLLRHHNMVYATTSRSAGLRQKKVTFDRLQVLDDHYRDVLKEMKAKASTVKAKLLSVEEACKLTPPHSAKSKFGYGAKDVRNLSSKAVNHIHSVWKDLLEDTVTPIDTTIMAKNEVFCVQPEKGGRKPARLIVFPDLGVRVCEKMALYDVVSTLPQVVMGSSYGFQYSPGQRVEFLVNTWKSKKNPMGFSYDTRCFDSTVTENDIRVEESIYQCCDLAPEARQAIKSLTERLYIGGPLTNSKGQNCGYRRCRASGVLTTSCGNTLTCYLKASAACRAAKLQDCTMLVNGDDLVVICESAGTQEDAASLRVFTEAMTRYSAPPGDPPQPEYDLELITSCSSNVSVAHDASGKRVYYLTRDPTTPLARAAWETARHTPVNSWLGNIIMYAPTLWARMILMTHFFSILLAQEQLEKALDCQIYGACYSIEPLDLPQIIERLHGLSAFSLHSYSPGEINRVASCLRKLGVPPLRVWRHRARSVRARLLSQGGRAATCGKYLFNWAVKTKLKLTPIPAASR

Regarding `Cc1nc(C(C)(C)NC(=O)c2ccc3c(C4CCCCC4)c4n(c3c2)CCOc2ccccc2-4)n(CCO)c1C` [Example 2-292, N-{1-[1-(2-hydroxyethyl)-4,5-dimethyl-1H-imidazol-2-yl]-1-methylethyl}-12-cyclohexyl-6,7-dihydro-5-oxa-7a-azadibenzo[a,e]azulene-9-carboxamide], the IC50 was 100 to 1000 nM. `Cc1nc(C(C)(C)NC(=O)c2ccc3c(C4CCCCC4)c4n(c3c2)CCOc2ccccc2-4)n(CC(=O)N(C)C)c1C` [Example 2-293, N-[1-(1-dimethylcarbamoylmethyl-4,5-dimethyl-1H-imidazol-2-yl)-1-methylethyl]-12-cyclohexyl-6,7-dihydro-5-oxa-7a-azadibenzo[a,e]azulene-9-carboxamide]: the IC50 was in the range of 100 to 1000 nM. `COC1CCN(C(=O)C(C)(C)NC(=O)c2ccc3c(C4CCCCC4)c4n(c3c2)CCOc2ccccc2-4)CC1` [Example 2-294, N-[2-(4-methoxypiperidin-1-yl)-1,1-dimethyl-2-oxoethyl]-12-cyclohexyl-6,7-dihydro-5-oxa-7a-azadibenzo[a,e]azulene-9-carboxamide]: the IC50 is under 100 nM. As for `COCCN(C)C(=O)[C@H](Cc1ccc(O)cc1)NC(=O)c1ccc2c(C3CCCCC3)c3n(c2c1)CCOc1cc(OC)ccc1-3` [Example 2-295, N-{(S)-2-(4-hydroxyphenyl)-1-[N-(2-methoxyethyl)-N-methylcarbamoyl]ethyl}-12-cyclohexyl-3-methoxy-6,7-dihydro-5-oxa-7a-azadibenzo[a,e]azulene-9-carboxamide], the IC50 was under 100 nM. The result for `COCCNC(=O)[C@H](Cc1ccc(O)cc1)NC(=O)c1ccc2c(C3CCCCC3)c3n(c2c1)CCOc1cc(OC)ccc1-3` [Example 2-296, N—[(S)-2-(4-hydroxyphenyl)-1-(2-methoxyethylcarbamoyl)ethyl]-12-cyclohexyl-3-methoxy-6,7-dihydro-5-oxa-7a-azadibenzo[a,e]azulene-9-carboxamide] reads under 100 nM; that for `COc1ccc2c(c1)OCCn1c-2c(C2CCCCC2)c2ccc(C(=O)N[C@@H](Cc3ccc(O)cc3)C(=O)N3CCC(OC)CC3)cc21` [Example 2-297, N—[(S)-1-(4-hydroxybenzyl)-2-(4-methoxypiperidin-1-yl)-2-oxoethyl]-12-cyclohexyl-3-methoxy-6,7-dihydro-5-oxa-7a-azadibenzo[a,e]azulene-9-carboxamide], under 100 nM. Compound `O=C(O)c1ccc2c(C3CCCCC3)c3n(c2c1)CCOc1c(-c2cccnc2)cccc1-3` [Example 2-298, 12-cyclohexyl-4-(pyridin-3-yl)-6,7-dihydro-5-oxa-7a-azadibenzo[a,e]azulene-9-carboxylic acid hydrochloride] showed an IC50 of under 100 nM. The result for `O=C(O)c1ccc2c(C3CCCCC3)c3n(c2c1)CCOc1c(-c2ccncc2)cccc1-3` [Example 2-299, 12-cyclohexyl-4-(pyridin-4-yl)-6,7-dihydro-5-oxa-7a-azadibenzo[a,e]azulene-9-carboxylic acid monohydrochloride] reads under 100 nM; that for `CCCN(CCN1CCCCC1)c1cccc2c1OCCn1c-2c(C2CCCCC2)c2ccc(C(N)=O)cc21` [Example 2-300, 12-cyclohexyl-4-{N-[2-(piperidin-1-yl)ethyl]-N-propylamino}-6,7-dihydro-5-oxa-7a-azadibenzo[a,e]azulene-9-carboxamide], under 100 nM. In turn, `CCN1CCN(C(=O)CN(CC)c2cccc3c2OCCn2c-3c(C3CCCCC3)c3ccc(C(=O)O)cc32)CC1` [Example 2-301, 12-cyclohexyl-4-{N-ethyl-N-[2-(4-ethylpiperazin-1-yl)-2-oxoethyl]amino}-6,7-dihydro-5-oxa-7a-azadibenzo[a,e]azulene-9-carboxylic acid dihydrochloride] gave an IC50 of under 100 nM. `O=C(O)c1ccc2c(C3CCCCC3)c3n(c2c1)CCOc1c(-c2cccc(CO)c2)cccc1-3` [Example 2-302, 12-cyclohexyl-4-(3-hydroxymethylphenyl)-6,7-dihydro-5-oxa-7a-azadibenzo[a,e]azulene-9-carboxylic acid] came in with an IC50 of under 100 nM.

`CC(=O)N1CCN(C(=O)C(C)(C)NC(=O)c2ccc3c(C4CCCCC4)c4n(c3c2)CCOc2ccccc2-4)CC1` [Example 2-303, N-[2-(4-acetylpiperazin-1-yl)-1,1-dimethyl-2-oxoethyl]-12-cyclohexyl-6,7-dihydro-5-oxa-7a-azadibenzo[a,e]azulene-9-carboxamide] gave an IC50 of under 100 nM. On to `CC(C)(NC(=O)c1ccc2c(C3CCCCC3)c3n(c2c1)CCOc1ccccc1-3)C(=O)N1CCN(CCO)CC1` [Example 2-304, N-{2-[4-(2-hydroxyethyl)piperazin-1-yl]-1,1-dimethyl-2-oxoethyl}-12-cyclohexyl-6,7-dihydro-5-oxa-7a-azadibenzo[a,e]azulene-9-carboxamide], for which the IC50 is under 100 nM. `COCCN1CCN(C(=O)C(C)(C)NC(=O)c2ccc3c(C4CCCCC4)c4n(c3c2)CCOc2ccccc2-4)CC1` [Example 2-305, N-{2-[4-(2-methoxyethyl)piperazin-1-yl]-1,1-dimethyl-2-oxoethyl}-12-cyclohexyl-6,7-dihydro-5-oxa-7a-azadibenzo[a,e]azulene-9-carboxamide] returned an IC50 of under 100 nM.

With `COc1cccc2c1OCCn1c-2c(C2CCCCC2)c2ccc(C(=O)NC(C)(C)C(=O)Nc3ccc(C(=O)O)cc3)cc21` [Example 2-306, 4-{2-[(12-cyclohexyl-4-methoxy-6,7-dihydro-5-oxa-7a-azadibenzo[a,e]azulene-9-carbonyl)amino]-2-methylpropionylamino}benzoic acid], the IC50 is under 100 nM. To `COc1ccc(-c2cnc(C(C)(C)NC(=O)c3ccc4c(C5CCCCC5)c5n(c4c3)CCOc3ccccc3-5)[nH]2)cc1` [Example 2-307, N-{1-[5-(4-methoxyphenyl)-1H-imidazol-2-yl]-1-methylethyl}-12-cyclohexyl-6,7-dihydro-5-oxa-7a-azadibenzo[a,e]azulene-9-carboxamide] belongs under 100 nM.

Turning to `COc1ccc2c(c1)OCCn1c-2c(C2CCCCC2)c2ccc(C(=O)N[C@@H](Cc3ccc(O)cc3)CN(C)C)cc21` [Example 2-308, N—[(S)-2-dimethylamino-1-(4-hydroxybenzyl)ethyl]-12-cyclohexyl-3-methoxy-6,7-dihydro-5-oxa-7a-azadibenzo[a,e]azulene-9-carboxamide], the half-maximal inhibitory concentration (IC50) is under 100 nM.

`COC(=O)[C@H](CCCCNC(=O)OC(C)(C)C)NC(=O)c1ccc2c(C3CCCCC3)c3n(c2c1)CCOc1cc(OC)ccc1-3` [Example 2-309, methyl (S)-6-tert-butoxycarbonylamino-2-[(12-cyclohexyl-3-methoxy-6,7-dihydro-5-oxa-7a-azadibenzo[a,e]azulene-9-carbonyl)amino]hexanoate] had an IC50 of 100 to 1000 nM. The result for `COc1ccc2c(c1)OCCn1c-2c(C2CCCCC2)c2ccc(C(=O)N[C@@H](Cc3c[nH]cn3)C(=O)O)cc21` [Example 2-310, (S)-2-[(12-cyclohexyl-3-methoxy-6,7-dihydro-5-oxa-7a-azadibenzo[a,e]azulene-9-carbonyl)amino]-3-(1H-imidazol-4-yl)propionic acid] reads under 100 nM. The result for `CC(C)(NC(=O)c1ccc2c(C3CCCCC3)c3n(c2c1)CCOc1ccccc1-3)c1nc2cc(-c3nnn[nH]3)ccc2[nH]1` [Example 2-311, N-{1-methyl-1-[5-(1H-tetrazol-5-yl)-1H-benzimidazol-2-yl]ethyl}-12-cyclohexyl-6,7-dihydro-5-oxa-7a-azadibenzo[a,e]azulene-9-carboxamide] reads under 100 nM; that for `CC(C)(NC(=O)c1ccc2c(C3CCCCC3)c3n(c2c1)CCOc1ccccc1-3)c1nc2ccccc2n1CC(=O)O` [Example 2-312, (2-{1-[(12-cyclohexyl-6,7-dihydro-5-oxa-7a-azadibenzo[a,e]azulene-9-carbonyl)amino]-1-methylethyl}benzimidazol-1-yl)acetic acid], under 100 nM; that for `COC(=O)c1ccc2nc(C3(NC(=O)c4ccc5c(C6CCCCC6)c6n(c5c4)CCOc4ccccc4-6)CCN(C)CC3)[nH]c2c1` [Example 2-313, methyl 2-{4-[(12-cyclohexyl-6,7-dihydro-5-oxa-7a-azadibenzo[a,e]azulene-9-carbonyl)amino]-1-methylpiperidin-4-yl]-3H-benzimidazole-5-carboxylate], under 100 nM.

Turning to `COC[C@H](Cc1ccc(O)cc1)NC(=O)c1ccc2c(C3CCCCC3)c3n(c2c1)CCOc1cc(OC)ccc1-3` [Example 2-314, N—[(S)-1-(4-hydroxybenzyl)-2-methoxyethyl]-12-cyclohexyl-3-methoxy-6,7-dihydro-5-oxa-7a-azadibenzo[a,e]azulene-9-carboxamide], the IC50 is under 100 nM. `COC(=O)C(Cc1ccc(O)c(F)c1)NC(=O)c1ccc2c(C3CCCCC3)c3n(c2c1)CCOc1cc(OC)ccc1-3` (centres unmarked) [Example 2-315, methyl 2-[(12-cyclohexyl-3-methoxy-6,7-dihydro-5-oxa-7a-azadibenzo[a,e]azulene-9-carbonyl)amino]-3-(3-fluoro-4-hydroxyphenyl)propionate] gave an IC50 of under 100 nM.

`COC(=O)[C@H](Cc1c[nH]c2ccc(O)cc12)NC(=O)c1ccc2c(C3CCCCC3)c3n(c2c1)CCOc1cc(OC)ccc1-3` [Example 2-316, methyl (S)-2-[(12-cyclohexyl-3-methoxy-6,7-dihydro-5-oxa-7a-azadibenzo[a,e]azulene-9-carbonyl)amino]-3-(5-hydroxy-1H-indol-3-yl)propionate] returned an IC50 of under 100 nM. Take `COC(=O)[C@H](Cc1ccc(NC(=O)OCc2ccccc2)cc1)NC(=O)c1ccc2c(C3CCCCC3)c3n(c2c1)CCOc1cc(OC)ccc1-3` [Example 2-317, methyl (S)-3-(4-benzyloxycarbonylaminophenyl)-2-[(12-cyclohexyl-3-methoxy-6,7-dihydro-5-oxa-7a-azadibenzo[a,e]azulene-9-carbonyl)amino]propionate]: the IC50 is under 100 nM.

For orientation: IC50 means the midpoint of a concentration-inhibition curve.
